Reference: ChEMBL document CHEMBL1138215, “Aminodeoxychorismate synthase inhibitors from one-bead one-compound combinatorial libraries: "staged" inhibitor design” (J Med Chem, 2006)
Active and inactive are the calls of the source. No cut-off for these calls is given here.

Experiments:
[1] = target: 4-amino-4-deoxychorismate synthase (Escherichia coli); test: Inhibition of ADCS
[2] = test system: 4-amino-4-deoxychorismate synthase ADCS/PabB (Escherichia coli); test: Inhibition of ADCS

Row | SMILES | Ki [1] [µM] | Activity [2]
1 | CC(=O)N[C@@H](CCCCNC(=O)c1cccc(OCC(=O)O)c1)C(N)=O | 31000 | 
2 | COc1cccc(OC)c1C(=O)N[C@@H](CCCCNC(=O)c1cccc(OCC(=O)O)c1)C(=O)N[C@@H](Cc1ccc([N+](=O)[O-])c(O)c1)C(N)=O | 720 | 
3 | O=C(O)c1ccc(=O)oc1 | 2000 | 
4 | O=C(O)COc1ccc(C(=O)O)cc1 | 100000 | 
5 | O=C(O)CNc1cc(C(=O)O)ccc1F | 3000 | 
6 | Cc1ccc(C(=O)N[C@@H](CCCCNC(=O)c2cccc(OCC(=O)O)c2)C(=O)N[C@@H](Cc2cccc(Cl)c2)C(=O)NCCOCCOCCNC(=O)CCC(=O)N2CCN(CC(N)=O)CC2)c([N+](=O)[O-])c1O | 1500 | 
7 | Cc1ccc(C(=O)N[C@@H](CCCCNC(=O)c2cccc(OCC(=O)O)c2)C(=O)N[C@@H](Cc2cccc(Cl)c2)C(N)=O)c([N+](=O)[O-])c1O | 770 | 
8 | Cc1ccc(C(=O)N[C@@H](CCCCNC(=O)c2cccc(OCC(=O)O)c2)C(=O)N[C@@H](Cc2ccc(C#N)cc2)C(N)=O)c([N+](=O)[O-])c1O | 540 | 
9 | NC(=O)C1(NC(=O)[C@H](CCCCNC(=O)c2cccc(OCC(=O)O)c2)NC(=O)c2cc(O)cc(O)c2)CCCCC1 | 1100 | 
10 | O=C(O)COc1cccc(C(=O)O)c1 | 37000 | 
11 | NC(=O)c1cccc(OCC(=O)O)c1 | 32000 | 
12 | CC(C(=O)N[C@@H](CCCCNC(=O)c1cccc(OCC(=O)O)c1)C(=O)NCCc1cccc2c1oc1c(CCC(N)=O)cccc12)c1ccc([N+](=O)[O-])cc1 (some centres undefined) | 360 | 
13 | O=C(O)CCNc1ccc(C(=O)O)cc1 | 13000 | 
14 | Cc1ccc(C(=O)N[C@@H](CCCCNC(=O)c2cccc(OCC(=O)O)c2)C(=O)NCC(C(N)=O)C2CCCCC2)c([N+](=O)[O-])c1O (some centres undefined) | 1700 | 
15 | NC(=O)C1(NC(=O)[C@H](CCCCNC(=O)c2cccc(OCC(=O)O)c2)NC(=O)c2ccc(Oc3ccccc3)cc2)CCS(=O)(=O)CC1 | 710 | 
16 | CC(=O)N[C@@H](CCCCNCc1cccc(OCC(=O)O)c1)C(N)=O | 38000 | 
17 | CC(C(=O)N[C@@H](CCCCNC(=O)c1cccc(OCC(=O)O)c1)C(=O)NCCc1cccc2c1oc1c(CCC(=O)NCCOCCOCCNC(=O)CCC(=O)N3CCN(CC(N)=O)CC3)cccc12)c1ccc([N+](=O)[O-])cc1 (some centres undefined) | 1400 | 
18 | NC(=O)C1(NC(=O)[C@H](CCCCNC(=O)c2cccc(OCC(=O)O)c2)NC(=O)c2ncccc2C(=O)c2ccccc2)CCCCC1 | 3900 | 
19 | O=C(O)CCC1=CC(CCC(=O)O)CCC1=O (centres undefined) |  | inactive
